The results in this text go back to ChEMBL document CHEMBL1201862, “PubChem BioAssay data set” (2004).

Common to all, as to experiment: NCI tumour cell line growth inhibition, 48 h
The test system of assay [1] is EKVX.
The test system of assay [2] is HCT-15.
The test system of assay [3] is HL-60.
The subject of assay [4] is CCRF-CEM.
Assay [5] deals with SK-MEL-28.
For assay [6], the system named is M14.
Assay [7] relates to SF-295.
In assay [8] the test system is IGROV-1.
Assay [9] concerns MDA-MB-435.
For assay [10], the system named is BT-549.
The test system of assay [11] is HCC 2998.
Assay [12] has as its system NCI/ADR-RES.
In assay [13] the test system is Hs-578T.
The test system of assay [14] is OVCAR-5.
The test system of assay [15] is MDA-N.
Assay [16] deals with TK-10.
In assay [17] the test system is SK-MEL-5.
Assay [18] has as its system ACHN.
The subject of assay [19] is RXF 393.

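In this assay, cells in 96-well plates receive the compound at five concentrations for 48 hours. Endpoints are linearly interpolated between the surrounding concentrations. At the GI50, growth is halved.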 Activity calls are given as the source filed them. No stated cut-off is given here; in the data, active = GI50 up to about 1.1 µM and inactive = higher.

With `O=C1Oc2ccccc2C(=O)/C1=C/N1C(=O)N/C(=C\c2ccccc2O)C1=O`, the GI50 is > 67.8 µM (inactive) in assay [1]; 39.8 µM in assay [2]; 60.3 µM (inactive) in assay [3]; > 100 µM (inactive) in [4]; > 84.9 µM (inactive) in [5]; 66.4 µM (inactive) in assay [6]. For the same compound, the GI50 in assay [7] was > 71 µM (inactive); in [8] it was 48.8 µM (inactive); in assay [9], > 79.3 µM (inactive); in [10], 45.4 µM (inactive); in assay [11] it was > 57.4 µM (inactive); in assay [12] it was 65.3 µM (inactive). For the same compound, the GI50 in [13] was > 53.1 µM (inactive); in [14], > 100 µM (inactive); in assay [15] it was 60.7 µM (inactive); in assay [16], 60.5 µM (inactive); in assay [17] it was 44.6 µM (inactive); in assay [18], 47.6 µM (inactive). The GI50 in assay [19] is 37.5 µM (inactive).
Regarding `O=C(C(=O)c1cc(-c2ccccc2)nc2ccc3ccccc3c12)c1ccccc1`, the GI50 was 76.9 µM (inactive) in assay [1]; 75 µM in assay [2]; 20.7 µM (inactive) in [3]; 24.7 µM (inactive) in assay [4]; 28.6 µM (inactive) in [5]; 67.5 µM (inactive) in assay [6]. In addition, the GI50 in assay [7] was 52.5 µM (inactive); in [8] it was 37.9 µM (inactive); in assay [9] it was 33.2 µM (inactive); in assay [10], 65.8 µM (inactive); in assay [11], > 100 µM (inactive); in [12] it was 97.7 µM (inactive). In addition, the GI50 in assay [13] is 20.7 µM (inactive); in assay [14], > 100 µM (inactive); in assay [15] it was 36.1 µM (inactive); in assay [16] it was 99.3 µM (inactive); in assay [17] it was 60.1 µM (inactive); in [18], > 100 µM (inactive). For the same compound, the GI50 in assay [19] is 39 µM (inactive).
For the compound `COC(=O)C#Cc1ccc([N+](=O)[O-])cc1`, the GI50 in assay [1] is 1.76 µM (inactive); in assay [2], 0.502 µM; in [3], 1.77 µM (inactive); in assay [4] it was 0.532 µM (active); in [5], 1.96 µM (inactive); in [6], 2.05 µM (inactive). Besides, the GI50 was 4.24 µM (inactive) in assay [7]; 1.81 µM (inactive) in assay [8]; 2.18 µM (inactive) in assay [9]; 1.49 µM (inactive) in assay [10]; 1.76 µM (inactive) in assay [11]; 2.87 µM (inactive) in [12]. Also, the GI50 is 2.84 µM (inactive) in assay [13]; 2.16 µM (inactive) in assay [14]; 2.54 µM (inactive) in assay [15]; 1.89 µM (inactive) in assay [16]; 2.4 µM (inactive) in assay [17]; 1.41 µM (inactive) in assay [18]. Further, the GI50 in assay [19] was 1.9 µM (inactive).
On to `O=S1(=O)c2cnccc2N=C(NCc2cccc3ccccc23)N1c1ccccc1`, for which the GI50 was 36.4 µM (inactive) in assay [1]; 50.1 µM in assay [2]; 1.87 µM (inactive) in assay [3]; 2.51 µM (inactive) in assay [4]; > 100 µM (inactive) in assay [5]; > 83.9 µM (inactive) in [6]. Besides, the GI50 in [7] was 62.8 µM (inactive); in assay [8], > 61.5 µM (inactive); in assay [9] it was > 100 µM (inactive); in assay [10], > 100 µM (inactive); in assay [11], 38.4 µM (inactive); in assay [12] it was 97.5 µM (inactive). In addition, the GI50 in assay [13] is > 73.3 µM (inactive); in [14], > 100 µM (inactive); in assay [15], 13.2 µM (inactive); in assay [16], 64.9 µM (inactive); in [17] it was > 95.9 µM (inactive); in assay [18], 35.9 µM (inactive). Further, the GI50 in assay [19] is > 43.9 µM (inactive).
As for `Cc1ncc(-c2nnnn2-c2ccccc2)c(C(=O)O)n1`, the GI50 in [1] was > 100 µM (inactive); in assay [2], greater than 100 µM; in assay [3] it was > 100 µM (inactive); in [4], > 100 µM (inactive); in [5] it was > 100 µM (inactive); in assay [6], > 100 µM (inactive). Moreover, the GI50 in assay [7], in assay [8], in assay [9], in assay [10], in assay [11] and in assay [12] was > 100 µM (inactive) each time. For the same compound, the GI50 in assay [13], in assay [14], in [15], in assay [16], in assay [17] and in assay [18] was > 100 µM (inactive) throughout. The GI50 in assay [19] was > 100 µM (inactive).
For `C/C=N\n1c(C)n[nH]c1=O`, the GI50 in assay [1] is > 100 µM (inactive); in assay [2] it was greater than 100 µM; in assay [3], > 100 µM (inactive); in assay [4], > 100 µM (inactive); in [5], > 100 µM (inactive); in [6] it was > 100 µM (inactive). In addition, the GI50 in [7], in assay [8], in assay [9], in [10], in assay [11] and in assay [12] was > 100 µM (inactive) throughout. The GI50 in assay [13], in assay [14], in assay [15], in [16], in [17] and in assay [18] was > 100 µM (inactive) throughout. Besides, the GI50 in assay [19] is > 100 µM (inactive).
Consider `Cc1c(C)c2c(c(N)c1C#N)C(=O)N(N)C2=O`, for which the GI50 is > 100 µM (inactive) in [1]; greater than 100 µM in [2]; > 100 µM (inactive) in [3]; > 100 µM (inactive) in assay [4]; > 100 µM (inactive) in assay [5]; > 100 µM (inactive) in assay [6]. Also, the GI50 in [7], in [8], in assay [9], in assay [10], in assay [11] and in assay [12] was > 100 µM (inactive) each time. In addition, the GI50 in assay [13], in [14], in [15], in assay [16], in [17] and in assay [18] was > 100 µM (inactive) each time. In addition, the GI50 in assay [19] was > 100 µM (inactive).
With `COc1ccc(CCNC(=O)Cc2ccccc2CO)cc1OC`, the GI50 is > 100 µM (inactive) in assay [1]; greater than 100 µM in assay [2]; > 100 µM (inactive) in assay [3]; > 100 µM (inactive) in assay [4]; > 100 µM (inactive) in assay [5]; > 100 µM (inactive) in [6]. The GI50 in assay [7], in assay [8], in assay [9], in [10], in [11] and in assay [12] was > 100 µM (inactive) each time. The GI50 in assay [13], in assay [14], in assay [15], in assay [16], in assay [17] and in [18] was > 100 µM (inactive) throughout. Further, the GI50 in [19] is > 100 µM (inactive).
As to `O=C1C2=Nc3ccccc3C(O)N2c2ccccc21` (centres undefined), the GI50 in [1] was 57.9 µM (inactive); in [2], 16.6 µM; in [3], 2.37 µM (inactive); in assay [4], > 92.7 µM (inactive); in [5], 23.4 µM (inactive); in assay [6] it was > 78.2 µM (inactive). The GI50 was 35.9 µM (inactive) in assay [7]; 40.2 µM (inactive) in assay [8]; 2.56 µM (inactive) in assay [9]; 28.4 µM (inactive) in assay [10]; 27.2 µM (inactive) in assay [11]; 40.3 µM (inactive) in assay [12]. Moreover, the GI50 in [13] was 40.5 µM (inactive); in assay [14], 81.1 µM (inactive); in [15] it was 1.84 µM (inactive); in [16] it was > 100 µM (inactive); in assay [17], 1.95 µM (inactive); in assay [18], 5.62 µM (inactive). In addition, the GI50 in assay [19] was > 10 µM (inactive).
With `N#CC(C#N)[C@@H]1CCC=C(Sc2ccccc2)[C@H]1Sc1ccccc1`, the GI50 was 4.54 µM (inactive) in assay [1]; 2.4 µM in [2]; 2.01 µM (inactive) in [3]; 1.57 µM (inactive) in [4]; 2.72 µM (inactive) in assay [5]; 1.96 µM (inactive) in [6]. For the same compound, the GI50 in [7] is 6.44 µM (inactive); in [8], 2.29 µM (inactive); in [9], 1.26 µM (inactive); in [10], 3.23 µM (inactive); in assay [11], 2.86 µM (inactive); in assay [12] it was 2.72 µM (inactive). Also, the GI50 in assay [13] is 5.16 µM (inactive); in assay [14], 5.58 µM (inactive); in assay [15] it was 1.32 µM (inactive); in assay [16] it was 1.86 µM (inactive); in assay [17] it was 3.41 µM (inactive); in [18], 2.34 µM (inactive). The GI50 in assay [19] was 1.83 µM (inactive).
Regarding `COC(=O)[C@H](Cc1ccccc1)NC(=O)c1ccc(CNC(=O)/C=C/c2ccc(-c3ccccc3)cc2)cc1`, the GI50 in assay [1] is > 100 µM (inactive); in assay [2] it was greater than 100 µM; in assay [3], 25.9 µM (inactive); in assay [4], 6.62 µM (inactive); in assay [5], > 100 µM (inactive); in [6] it was 94.6 µM (inactive). The GI50 in [7] is 19.7 µM (inactive); in [8] it was > 100 µM (inactive); in assay [9], > 100 µM (inactive); in [10] it was 24.9 µM (inactive); in [11], 11.5 µM (inactive); in [12] it was 59.8 µM (inactive). Further, the GI50 is 22.8 µM (inactive) in [13]; 59.4 µM (inactive) in [14]; > 100 µM (inactive) in assay [15]; 68.1 µM (inactive) in [16]; > 100 µM (inactive) in [17]; > 100 µM (inactive) in [18]. Moreover, the GI50 in assay [19] was 11.1 µM (inactive).
